# From the supplement of paper PMC8671470
# Assays:
# Experiment in all cases: cell viability (% survival relative to DMSO control, bortezomib = 0%); higher = less cytotoxic
# Details in all cases: 72 h
# [1] = tested on: KU-812
# Method in brief: (§1)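 Fifteen myeloid leukaemia cell lines (10 AML, 5 CML) were seeded at a density titrated to the linear growth range into 384-well plates pre-printed with compounds at 1, 10, 100, 1000 or 10000 nM in duplicate. Plates were incubated for 72 h at 37 °C with 5% CO2. Viability was then read by CellTiter-Glo luminescence. Each value is percent survival averaged over the duplicates, with vehicle set to 100% and a 10 µM positive control to 0%.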
# [2] = tested on: Mono-Mac-6
# Method in brief: as §1
# [3] = tested on: NOMO-1
# Method in brief: as §1
# [4] = tested on: THP-1
# Method in brief: as §1
Compound,cell viability ([1]; 1 nM),cell viability ([1]; 10 nM),cell viability ([1]; 100 nM),cell viability ([1]; 1000 nM),cell viability ([1]; 10000 nM),cell viability ([2]; 1 nM),cell viability ([2]; 10 nM),cell viability ([2]; 100 nM),cell viability ([2]; 1000 nM),cell viability ([2]; 10000 nM),cell viability ([3]; 1 nM),cell viability ([3]; 10 nM),cell viability ([3]; 100 nM),cell viability ([3]; 1000 nM),cell viability ([3]; 10000 nM),cell viability ([4]; 1 nM),cell viability ([4]; 10 nM),cell viability ([4]; 100 nM),cell viability ([4]; 1000 nM),cell viability ([4]; 10000 nM)
NCc1ccc(-c2cccnc2)s1 [(5-Pyrid-3-YLTHIEN-2-YL)METHYLAMINE],104%,107%,97.7%,104%,85.1%,108%,103%,95.7%,104%,89%,109%,105%,97.5%,109%,87.9%,109%,111%,99.6%,104%,93%
CC(=O)N[C@@H](CS)C(=O)O [Acetylcysteine],102%,93.4%,87.9%,97.1%,97%,114%,96.3%,97%,100%,105%,105%,99%,98.8%,93.5%,103%,103%,98.8%,101%,100%,102%
CCCCC/C=C\C/C=C\C/C=C\C/C=C\CCCC(=O)C(F)(F)F [Arachidonyl trifluoromethyl ketone],104%,86.9%,88.4%,68.5%,61.7%,98.5%,97.9%,102%,80.7%,57.7%,90.4%,98.7%,92.1%,84.5%,79.9%,95.2%,103%,94.1%,87.5%,61.1%
O=[As]O[As]=O (stereo not given) [Arsenic trioxide],98.5%,105%,112%,93.4%,61.5%,98.2%,104%,109%,102%,43.2%,98%,96%,110%,100%,71.4%,93.9%,96.1%,106%,92.4%,82.2%
C=C1C(=O)O[C@H](CCCCCCCC)[C@H]1C(=O)O [C75],95%,97.6%,105%,102%,106%,98.1%,99.9%,103%,94.4%,98.9%,108%,99.7%,113%,100%,109%,111%,94.7%,111%,108%,102%
O=NN(CCCl)C(=O)NCCCl [Carmustine],99.4%,118%,114%,98.5%,97.1%,106%,97.8%,99.8%,109%,117%,102%,103%,104%,100%,99%,97.6%,107%,102%,101%,98.9%
O[C@H]1[C@H](O)[C@@H](O)CN2CC[C@H](O)[C@H]12 [Castanospermine],96.7%,93.5%,105%,100%,94.6%,100%,97.3%,105%,95.1%,97.6%,105%,111%,105%,105%,86.7%,91.9%,105%,101%,96.9%,98.8%
N=C(N)c1ccc(N=NNc2ccc(C(=N)N)cc2)cc1 [Diminazene],89.2%,100%,95.5%,101%,85.7%,97%,100%,107%,105%,98.2%,106%,99%,104%,102%,86.9%,105%,99.7%,107%,103%,86.3%
OCCN(CCO)c1nc(N2CCCCC2)c2nc(N(CCO)CCO)nc(N3CCCCC3)c2n1 [Dipyridamole],87.9%,98.7%,90.7%,86.5%,69.4%,98%,103%,98.5%,97.1%,77.4%,98%,101%,107%,92.3%,81.9%,96.6%,100%,107%,90.8%,81.5%
Cc1cc(O)c2c(c1)C(=O)c1cc(O)cc(O)c1C2=O [Emodin],95.1%,100%,104%,89.8%,80.8%,92.1%,106%,97.3%,102%,81.7%,99.1%,100%,103%,104%,112%,90.6%,97.3%,106%,90.5%,105%
